Data from patent publication US8618289B2 (Ambit Biosciences Corporation, priority 2008, dated 2013).

How the values were obtained:
[1] = target: RAF kinases (Homo sapiens, UniProt P04049); conditions: read-out: RAF1 Kd; RAF1
[2] = target: RAF kinases (Homo sapiens, UniProt P15056); conditions: read-out: BRAF WT Kd; BRAF WT
[3] = system: MEK1 phosphorylation in the A375 human melanoma cell line; assay: cells; conditions: A-375, read-out: pMEK IC50
Experimental: A375 cells (from American Type Culture Collection) were plated at 50,000 cells per well in DMEM (Mediatech) with 10% fetal bovine serum (Omega Scientific) into a 96 well plate and incubated overnight in a 37° C. incubator with 10% CO2. The cells were then washed with PBS and the medium replaced with 0.5% FBS for incubation overnight. […] The cells were incubated with compound or control for two hours at 37° C. The compound solution was aspirated off and the cells washed with cold PBS. […] The plate was centrifuged for 30 minutes to pellet out the cell debris. The cleared lysates were transferred to a 96-well Nunc plate and the ELISA protocol described by the manufacturer in Catalog #KHO0321 or KHO0291 was followed.

[4] = target: RAF kinases (Homo sapiens, UniProt P15056, V600E); assay: biochemical
RAF kinases (Homo sapiens, UniProt P15056, V600E), sequence (P15056 whole entry V600E): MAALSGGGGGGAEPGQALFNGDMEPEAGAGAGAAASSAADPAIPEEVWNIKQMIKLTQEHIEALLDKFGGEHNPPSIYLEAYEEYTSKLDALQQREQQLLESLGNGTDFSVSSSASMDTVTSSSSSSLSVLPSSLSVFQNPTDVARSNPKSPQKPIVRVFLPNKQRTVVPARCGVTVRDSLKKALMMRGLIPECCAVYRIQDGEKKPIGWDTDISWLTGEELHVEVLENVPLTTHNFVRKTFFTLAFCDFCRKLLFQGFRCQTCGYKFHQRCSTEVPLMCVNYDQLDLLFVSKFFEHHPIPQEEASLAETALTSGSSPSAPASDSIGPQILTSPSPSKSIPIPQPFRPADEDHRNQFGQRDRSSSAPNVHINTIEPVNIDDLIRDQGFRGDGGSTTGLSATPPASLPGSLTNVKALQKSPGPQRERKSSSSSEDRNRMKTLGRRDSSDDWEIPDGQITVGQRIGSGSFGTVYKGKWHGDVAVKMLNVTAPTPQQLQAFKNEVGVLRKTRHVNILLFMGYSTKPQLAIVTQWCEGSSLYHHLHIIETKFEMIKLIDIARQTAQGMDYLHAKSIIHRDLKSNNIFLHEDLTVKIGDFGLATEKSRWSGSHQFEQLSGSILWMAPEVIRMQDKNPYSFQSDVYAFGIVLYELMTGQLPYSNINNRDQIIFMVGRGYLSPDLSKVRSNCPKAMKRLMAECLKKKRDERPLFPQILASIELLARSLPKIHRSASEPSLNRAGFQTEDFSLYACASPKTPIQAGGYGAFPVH

[5] = system: A375 cells; assay: cells; conditions: Homo sapiens, A-375, read-out: A375 Viability EC50

RAF kinases (Homo sapiens, UniProt P15056), sequence (P15056 whole entry): as the sequence (P15056 whole entry V600E) above, with E600V counted along it
RAF kinases (Homo sapiens, UniProt P04049), sequence (P04049 whole entry): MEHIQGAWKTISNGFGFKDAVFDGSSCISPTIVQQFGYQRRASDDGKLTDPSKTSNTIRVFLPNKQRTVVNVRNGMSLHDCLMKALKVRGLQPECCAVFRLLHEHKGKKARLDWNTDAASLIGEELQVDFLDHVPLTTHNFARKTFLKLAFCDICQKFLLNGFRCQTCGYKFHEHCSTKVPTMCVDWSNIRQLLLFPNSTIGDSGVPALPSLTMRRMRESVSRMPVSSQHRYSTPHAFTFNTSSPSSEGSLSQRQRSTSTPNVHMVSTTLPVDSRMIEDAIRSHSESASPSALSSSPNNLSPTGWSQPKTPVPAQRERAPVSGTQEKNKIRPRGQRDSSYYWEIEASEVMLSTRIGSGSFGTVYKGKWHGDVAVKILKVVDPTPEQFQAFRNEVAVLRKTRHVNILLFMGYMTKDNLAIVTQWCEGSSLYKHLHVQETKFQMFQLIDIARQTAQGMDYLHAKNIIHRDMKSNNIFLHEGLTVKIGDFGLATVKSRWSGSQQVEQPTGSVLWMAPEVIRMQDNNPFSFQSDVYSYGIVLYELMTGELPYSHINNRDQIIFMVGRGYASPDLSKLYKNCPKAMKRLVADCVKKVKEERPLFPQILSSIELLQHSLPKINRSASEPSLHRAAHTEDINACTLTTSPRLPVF

| SMILES | Kd [1] | Kd [2] | IC50 [3] | Kd [4] | EC50 [5] |
| --- | --- | --- | --- | --- | --- |
| COc1cc2ncnc(Oc3ccc(Cl)c(NC(=O)Nc4cc(C(F)(F)F)nn4-c4ccccc4)c3)c2cc1OC [Ex 300, 1-(2-chloro-5-(6,7-dimethoxyquinazolin-4-yloxy)phenyl)-3-(1-phenyl-3-(trifluoromethyl)-1H-pyrazol-5-yl)urea] | > 1000 nM | > 1000 nM | 250 to 500 nM | 500 to 1000 nM | > 1000 nM |
| COc1cc2ncnc(Sc3cccc(NC(=O)Nc4cc(C(C)(C)C)nn4-c4cccc(C)c4)c3)c2cc1OC [Ex 286, 1-(3-tert-butyl-1-m-tolyl-1H-pyrazol-5-yl)-3-(3-(6,7-dimethoxyquinazolin-4-ylthio)phenyl)urea] | > 1000 nM | > 1000 nM | < 250 nM | 250 to 500 nM | – |
| COc1cc2ncnc(Sc3cccc(NC(=O)Nc4cc(C(C)(C)C)nn4-c4cccc(F)c4)c3)c2cc1OC [Ex 360, 1-(3-tert-butyl-1-(3-fluorophenyl)-1H-pyrazol-5-yl)-3-(3-(6,7-dimethoxyquinazolin-4-ylthio)phenyl)urea] | > 1000 nM | > 1000 nM | < 250 nM | 250 to 500 nM | – |
| COc1cc2ncnc(Oc3cc(NC(=O)Nc4cc(C(F)(F)F)nn4-c4ccccc4)c(F)cc3F)c2cc1OC [Ex 271, 1-(5-(6,7-dimethoxyquinazolin-4-yloxy)-2,4-difluorophenyl)-3-(1-phenyl-3-(trifluoromethyl)-1H-pyrazol-5-yl)urea] | > 1000 nM | > 1000 nM | < 250 nM | 250 to 500 nM | 250 to 500 nM |
| COc1cc2ncnc(Sc3cccc(NC(=O)Nc4cc(C(C)(C)C)nn4-c4ccccc4C(F)(F)F)c3)c2cc1OC [Ex 375, 1-(3-tert-butyl-1-(2-(trifluoromethyl)phenyl)-1H-pyrazol-5-yl)-3-(3-(6,7-dimethoxyquinazolin-4-ylthio)phenyl)urea] | > 1000 nM | > 1000 nM | < 250 nM | 500 to 1000 nM | – |
| COc1cc2ncnc(Oc3cccc(NC(=O)Nc4cc(C(C)(C)C)nn4-c4cccc(C(F)(F)F)c4)c3)c2cc1OC [Ex 379, 1-(3-tert-butyl-1-(3-(trifluoromethyl)phenyl)-1H-pyrazol-5-yl)-3-(3-(6,7-dimethoxyquinazolin-4-yloxy)phenyl)urea] | > 1000 nM | > 1000 nM | < 250 nM | 250 to 500 nM | – |
| COc1cc2ncnc(Sc3cccc(NC(=O)Nc4cc(C5(C(F)(F)F)CC5)nn4-c4ccccc4)c3)c2cc1OC [Ex 383, 1-(3-(6,7-dimethoxyquinazolin-4-ylthio)phenyl)-3-(1-phenyl-3-(1-(trifluoromethyl)cyclopropyl)-1H-pyrazol-5-yl)urea] | > 1000 nM | > 1000 nM | < 250 nM | 250 to 500 nM | – |
| COc1cc2ncnc(Oc3ccc(F)c(NC(=O)Nc4cc(C(C)(C)C)nn4-c4ccccc4)c3)c2cc1OC [Ex 368, 1-(3-tert-butyl-1-phenyl-1H-pyrazol-5-yl)-3-(5-(6,7-dimethoxyquinazolin-4-yloxy)-2-fluorophenyl)urea] | > 1000 nM | > 1000 nM | < 250 nM | 500 to 1000 nM | – |
| COc1cc2ncnc(Oc3cccc(NC(=O)Nc4cc(C(C)(C)C)nn4-c4ccc(C)cc4)c3C)c2cc1OC [Ex 288, 1-(3-tert-butyl-1-p-tolyl-1H-pyrazol-5-yl)-3-(3-(6,7-dimethoxyquinazolin-4-yloxy)-2-methylphenyl)urea] | > 1000 nM | > 1000 nM | < 250 nM | 250 to 500 nM | – |
| COc1cc2ncnc(Oc3cccc(NC(=O)Nc4cc(C(C)(C)C)nn4-c4ccc(Cl)cc4)c3)c2cc1OC [Ex 365, 1-(3-tert-butyl-1-(4-chlorophenyl)-1H-pyrazol-5-yl)-3-(3-(6,7-dimethoxyquinazolin-4-yloxy)phenyl)urea] | > 1000 nM | > 1000 nM | < 250 nM | 250 to 500 nM | – |
| COc1cc2ncnc(Oc3cccc(NC(=O)Nc4cc(C(C)(C)C)nn4-c4ccc(C(F)(F)F)cc4)c3)c2cc1OC [Ex 373, 1-(3-tert-butyl-1-(4-(trifluoromethyl)phenyl)-1H-pyrazol-5-yl)-3-(3-(6,7-dimethoxyquinazolin-4-yloxy)phenyl)urea] | > 1000 nM | > 1000 nM | < 250 nM | 500 to 1000 nM | – |
| COc1cc2ncnc(Sc3cccc(NC(=O)Nc4cc(C(C)(C)C)nn4-c4ccccc4F)c3)c2cc1OC [Ex 371, 1-(3-tert-butyl-1-(2-fluorophenyl)-1H-pyrazol-5-yl)-3-(3-(6,7-dimethoxyquinazolin-4-ylthio)phenyl)urea] | > 1000 nM | > 1000 nM | < 250 nM | 250 to 500 nM | – |
| COc1cc2ncnc(Sc3cccc(NC(=O)Nc4cc(C(C)(C)C)nn4-c4ccc(C)cc4)c3)c2cc1OC [Ex 275, 1-(3-tert-butyl-1-p-tolyl-1H-pyrazol-5-yl)-3-(3-(6,7-dimethoxyquinazolin-4-ylthio)phenyl)urea] | > 1000 nM | > 1000 nM | < 250 nM | 250 to 500 nM | – |
| COc1cc2ncnc(Oc3cccc(NC(=O)Nc4cc(C(C)(C)C)nn4-c4ccc(C)cc4C)c3)c2cc1OC [Ex 282, 1-(3-tert-butyl-1-(2,4-dimethylphenyl)-1H-pyrazol-5-yl)-3-(3-(6,7-dimethoxyquinazolin-4-yloxy)phenyl)urea] | > 1000 nM | > 1000 nM | < 250 nM | 500 to 1000 nM | – |
| COc1cc2ncnc(Oc3cc(NC(=O)Nc4cc(C(C)(C)C)nn4-c4ccc(C)cc4)c(F)cc3F)c2cc1OC [Ex 272, 1-(3-tert-butyl-1-p-tolyl-1H-pyrazol-5-yl)-3-(5-(6,7-dimethoxyquinazolin-4-yloxy)-2,4-difluorophenyl)urea] | > 1000 nM | > 1000 nM | < 250 nM | 500 to 1000 nM | – |

Further lines, results first:

| Kd [1] | Kd [2] | IC50 [3] | Kd [4] | EC50 [5] | SMILES |
| --- | --- | --- | --- | --- | --- |
| > 1000 nM | > 1000 nM | 500 to 1000 nM | 500 to 1000 nM | > 1000 nM | CCOC(=O)Cn1nc(C(C)(C)C)cc1NC(=O)Nc1cccc(Sc2ncnc3cc(OCCOC)c(OC)cc23)c1 [Ex 237, ethyl 2-[3-tert-butyl-5-(3-{3-[6-methoxy-7-(2-methoxyethoxy)quinazolin-4-ylthio]phenyl}ureido)-1H-pyrazol-1-yl]acetate] |
| > 1000 nM | > 1000 nM | > 1000 nM | 250 to 500 nM | > 1000 nM | COc1cc2ncnc(Oc3cccc(NC(=O)Nc4cc(C(C)(C)CN5CCOCC5)on4)c3)c2cc1OC [Ex 302, 1-(3-(6,7-dimethoxyquinazolin-4-yloxy)phenyl)-3-(5-(2-methyl-1-morpholinopropan-2-yl)isoxazol-3-yl)urea] |
| > 1000 nM | > 1000 nM | 500 to 1000 nM | 250 to 500 nM | > 1000 nM | COCCOc1cc2ncnc(Oc3cccc(NC(=O)Nc4cc(C(F)(F)F)n(-c5ccccc5)n4)c3)c2cc1OC [Ex 225, 1-{3-[6-methoxy-7-(2-methoxyethoxy)quinazolin-4-yloxy]phenyl}-3-[1-phenyl-5-(trifluoromethyl)-1H-pyrazol-3-yl]urea] |
| > 1000 nM | > 1000 nM | > 1000 nM | 500 to 1000 nM | > 1000 nM | COCCOc1cc2ncnc(Sc3cccc(NC(=O)Nc4ccc(C(F)(F)F)c(OC)c4)c3)c2cc1OC [Ex 233, 1-(3-methoxy-4-(trifluoromethyl)phenyl)-3-(3-(6-methoxy-7-(2-methoxyethoxy)quinazolin-4-ylthio)phenyl)urea] |
| > 1000 nM | > 1000 nM | > 1000 nM | 500 to 1000 nM | > 1000 nM | COCCOc1cc2ncnc(Sc3cccc(NC(=O)Nc4ccc(C(F)(F)F)c(F)c4)c3)c2cc1OC [Ex 231, 1-(3-fluoro-4-(trifluoromethyl)phenyl)-3-(3-(6-methoxy-7-(2-methoxyethoxy)quinazolin-4-ylthio)phenyl)urea] |
| > 1000 nM | > 1000 nM | < 250 nM | 250 to 500 nM | – | COc1cc2ncnc(Sc3cccc(NC(=O)Nc4cc(C(C)(C)C)nn4-c4cccc(C(F)(F)F)c4)c3)c2cc1OC [Ex 380, 1-(3-tert-butyl-1-(3-(trifluoromethyl)phenyl)-1H-pyrazol-5-yl)-3-(3-(6,7-dimethoxyquinazolin-4-ylthio)phenyl) urea] |
| > 1000 nM | > 1000 nM | > 1000 nM | 250 to 500 nM | > 1000 nM | COCCOc1cc2ncnc(Oc3cccc(NC(=O)Nc4cc(C5CCOCC5)no4)c3)c2cc1OC [Ex 216, 1-(3-(6-methoxy-7-(2-methoxyethoxy)quinazolin-4-yloxy)phenyl)-3-(3-(tetrahydro-2H-pyran-4-yl)isoxazol-5-yl)urea] |
| > 1000 nM | > 1000 nM | < 250 nM | 500 to 1000 nM | – | COc1ccc(-n2nc(C(C)(C)C)cc2NC(=O)Nc2cccc(Sc3ncnc4cc(OC)c(OC)cc34)c2)cc1 [Ex 362, 1-(3-tert-butyl-1-(4-methoxyphenyl)-1H-pyrazol-5-yl)-3-(3-(6,7-dimethoxyquinazolin-4-ylthio)phenyl)urea] |
| > 1000 nM | > 1000 nM | < 250 nM | 500 to 1000 nM | – | COc1cc2ncnc(Oc3cccc(NC(=O)Nc4cc(C(C)(C)C)nn4-c4ccccc4C(F)(F)F)c3)c2cc1OC [Ex 376, 1-(3-tert-butyl-1-(2-(trifluoromethyl)phenyl)-1H-pyrazol-5-yl)-3-(3-(6,7-dimethoxyquinazolin-4-yloxy)phenyl)urea] |
| > 1000 nM | > 1000 nM | 250 to 500 nM | 500 to 1000 nM | > 1000 nM | COCCOc1cc2ncnc(Oc3cccc(NC(=O)Nc4cc(C(F)(F)F)nn4-c4ccc(F)cc4)c3)c2cc1OC [Ex 226, 1-[1-(4-fluorophenyl)-3-(trifluoromethyl)-1H-pyrazol-5-yl]-3-{3-[6-methoxy-7-(2-methoxyethoxy)quinazolin-4-yloxy]phenyl}urea] |
